Target: T1, Adrenergic receptor alpha (Homo sapiens) (UniProt P35348+P08913+P18825+P25100+P35368+P18089)
Experiment: In vitro alpha-2 selectivity which is the measure of Ratio of Ki of alpha-1 adrenoceptor to Ki of alpha-2 adrenoceptor
Format: protein assay
Details: not given

Compound	Ratio
CN(C)CC1CCc2c1ccc(O)c2O (stereo not given)	7.6
CN(C)CC1OCc2c1ccc(O)c2O (stereo not given)	4
NCC1OCc2c1ccc(O)c2O (stereo not given)	36.3
CNCC1CCc2c1ccc(O)c2O (stereo not given)	110
CNCC1OCc2c1ccc(O)c2O (stereo not given)	5.3
NCC1CCc2c1ccc(O)c2O (stereo not given)	209

Tested on: not listed separately
Experiment: Ratio of ED50 of NE to ED50 of CPD from Rabbit aorta alpha-1 adrenoceptor
Format: tissue-based
Details: not given

Compound	Ratio
CN(C)CC1CCc2c1ccc(O)c2O (stereo not given)	0.27
CN(C)CC1OCc2c1ccc(O)c2O (stereo not given)	1
NCC1OCc2c1ccc(O)c2O (stereo not given)	0.04
CNCC1CCc2c1ccc(O)c2O (stereo not given)	0.27
CNCC1OCc2c1ccc(O)c2O (stereo not given)	0.32
NCC1CCc2c1ccc(O)c2O (stereo not given)	0.017

Tested on: not listed separately
Experiment: Ratio of ED50 of NE to ED50 of CPD from PBZ-pretreated dog alpha-2 adrenoceptor
Details: not given

Compound	Ratio
CN(C)CC1CCc2c1ccc(O)c2O (stereo not given)	2.05
CN(C)CC1OCc2c1ccc(O)c2O (stereo not given)	4
NCC1OCc2c1ccc(O)c2O (stereo not given)	1.45
CNCC1CCc2c1ccc(O)c2O (stereo not given)	29.6
CNCC1OCc2c1ccc(O)c2O (stereo not given)	1.69
NCC1CCc2c1ccc(O)c2O (stereo not given)	3.55

Target: Adrenergic receptor alpha-1 (Homo sapiens) (UniProt P35348+P25100+P35368)
Experiment: In vitro alpha 1 adrenergic activity using isolated rabbit aorta expressed as percent maximum response of the tissue to norepinephrine.
Format: functional, tissue-based
Details: Oryctolagus cuniculus

Compound	Emax
CN(C)CC1CCc2c1ccc(O)c2O (stereo not given)	105
CN(C)CC1OCc2c1ccc(O)c2O (stereo not given)	114
NCC1OCc2c1ccc(O)c2O (stereo not given)	107
CNCC1CCc2c1ccc(O)c2O (stereo not given)	109
CNCC1OCc2c1ccc(O)c2O (stereo not given)	126
NCC1CCc2c1ccc(O)c2O (stereo not given)	102

Target: Adrenergic receptor alpha-2 (Homo sapiens) (UniProt P08913+P18825+P18089)
Experiment: In vitro alpha 2 adrenergic activity uin phenozybenzamine pretreated dog saphenous vein expressed as percent maximum response of the tissue to norepinephrine.
Format: functional, tissue-based
Details: Canis lupus familiaris

Compound	Emax
CN(C)CC1CCc2c1ccc(O)c2O (stereo not given)	101
CN(C)CC1OCc2c1ccc(O)c2O (stereo not given)	107
NCC1OCc2c1ccc(O)c2O (stereo not given)	90
CNCC1CCc2c1ccc(O)c2O (stereo not given)	81
CNCC1OCc2c1ccc(O)c2O (stereo not given)	94
NCC1CCc2c1ccc(O)c2O (stereo not given)	91

Target: T1, Adrenergic receptor alpha (Homo sapiens)
Experiment: Ratio of Ki of alpha-1 to Ki of alpha-2 adrenoceptor
Format: protein assay
Details: not given

Compound	Ratio
CN(C)CC1CCc2c1ccc(O)c2O (stereo not given)	276
CN(C)CC1OCc2c1ccc(O)c2O (stereo not given)	109
NCC1OCc2c1ccc(O)c2O (stereo not given)	127
CCCN(CCC)CC1OCc2c1ccc(O)c2O (stereo not given)	15
CCCN(CCC)CC1CCc2c1ccc(O)c2O (stereo not given)	16
NCC1OCc2cc(O)c(O)cc21 (stereo not given)	9.7
CNCC1CCc2c1ccc(O)c2O (stereo not given)	323
CNCC1OCc2c1ccc(O)c2O (stereo not given)	112
NCC1CCc2c1ccc(O)c2O (stereo not given)	145
NCC1CCc2cc(O)c(O)cc21 (stereo not given)	50

Target: T2, Adrenergic receptor alpha-1 (Homo sapiens, UniProt P35348+P25100+P35368)
T2 sequence (P35348 whole entry): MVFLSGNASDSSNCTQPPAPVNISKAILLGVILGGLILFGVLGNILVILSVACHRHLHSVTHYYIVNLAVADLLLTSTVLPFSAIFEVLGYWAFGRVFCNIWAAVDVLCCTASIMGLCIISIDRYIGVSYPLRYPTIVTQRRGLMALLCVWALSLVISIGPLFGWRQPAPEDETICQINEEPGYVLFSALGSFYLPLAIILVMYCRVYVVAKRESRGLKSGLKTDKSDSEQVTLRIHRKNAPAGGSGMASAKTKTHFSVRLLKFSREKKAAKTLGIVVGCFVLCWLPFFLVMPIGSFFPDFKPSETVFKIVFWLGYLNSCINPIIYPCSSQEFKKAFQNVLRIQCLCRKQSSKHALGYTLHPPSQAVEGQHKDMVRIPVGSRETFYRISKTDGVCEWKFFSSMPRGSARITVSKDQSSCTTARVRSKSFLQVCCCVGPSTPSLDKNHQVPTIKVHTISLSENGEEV
T2 sequence (P25100 whole entry): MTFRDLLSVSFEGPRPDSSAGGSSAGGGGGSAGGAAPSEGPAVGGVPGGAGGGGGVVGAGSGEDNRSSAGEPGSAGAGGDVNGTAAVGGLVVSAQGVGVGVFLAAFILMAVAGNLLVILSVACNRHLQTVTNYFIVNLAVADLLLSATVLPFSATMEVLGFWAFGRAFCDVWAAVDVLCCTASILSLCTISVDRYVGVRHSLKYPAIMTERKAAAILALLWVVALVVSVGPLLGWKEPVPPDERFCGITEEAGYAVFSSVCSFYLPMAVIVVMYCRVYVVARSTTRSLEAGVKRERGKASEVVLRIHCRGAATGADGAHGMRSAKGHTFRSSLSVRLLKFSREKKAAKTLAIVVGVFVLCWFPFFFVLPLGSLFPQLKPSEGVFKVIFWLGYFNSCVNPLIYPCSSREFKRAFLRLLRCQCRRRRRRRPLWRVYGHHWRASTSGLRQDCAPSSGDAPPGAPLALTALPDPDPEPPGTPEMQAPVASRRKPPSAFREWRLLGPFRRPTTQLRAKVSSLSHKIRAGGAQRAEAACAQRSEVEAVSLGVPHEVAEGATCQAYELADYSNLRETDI
T2 sequence (P35368 whole entry): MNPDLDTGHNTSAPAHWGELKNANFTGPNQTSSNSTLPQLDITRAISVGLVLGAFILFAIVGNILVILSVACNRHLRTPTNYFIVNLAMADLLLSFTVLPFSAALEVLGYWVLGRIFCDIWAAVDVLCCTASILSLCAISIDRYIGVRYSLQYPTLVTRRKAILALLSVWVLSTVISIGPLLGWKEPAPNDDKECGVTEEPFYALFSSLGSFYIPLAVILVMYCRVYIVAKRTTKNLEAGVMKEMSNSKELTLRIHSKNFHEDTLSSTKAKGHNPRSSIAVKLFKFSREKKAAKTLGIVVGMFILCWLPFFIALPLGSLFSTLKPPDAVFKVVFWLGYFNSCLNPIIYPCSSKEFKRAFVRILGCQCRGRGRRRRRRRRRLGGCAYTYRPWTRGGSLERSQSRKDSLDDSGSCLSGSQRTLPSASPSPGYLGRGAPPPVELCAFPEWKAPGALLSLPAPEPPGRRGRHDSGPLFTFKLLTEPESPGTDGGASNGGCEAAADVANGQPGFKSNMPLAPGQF
Experiment: Binding affinity towards alpha 1 adrenergic receptor
Format: protein assay, Oryctolagus cuniculus
Details: not given

Compound	Ki [µM]
CN(C)CC1CCc2c1ccc(O)c2O (stereo not given)	6.9
CN(C)CC1OCc2c1ccc(O)c2O (stereo not given)	1.16
NCC1OCc2c1ccc(O)c2O (stereo not given)	9.8
CCCN(CCC)CC1OCc2c1ccc(O)c2O (stereo not given)	10.3
CCCN(CCC)CC1CCc2c1ccc(O)c2O (stereo not given)	7.4
NCC1OCc2cc(O)c(O)cc21 (stereo not given)	99
CNCC1CCc2c1ccc(O)c2O (stereo not given)	2
CNCC1OCc2c1ccc(O)c2O (stereo not given)	1.97
NCC1CCc2c1ccc(O)c2O (stereo not given)	2.25
NCC1CCc2cc(O)c(O)cc21 (stereo not given)	26

Target: T3, Adrenergic receptor alpha-2 (Homo sapiens, UniProt P08913+P18825+P18089)
T3 sequence (P08913 whole entry): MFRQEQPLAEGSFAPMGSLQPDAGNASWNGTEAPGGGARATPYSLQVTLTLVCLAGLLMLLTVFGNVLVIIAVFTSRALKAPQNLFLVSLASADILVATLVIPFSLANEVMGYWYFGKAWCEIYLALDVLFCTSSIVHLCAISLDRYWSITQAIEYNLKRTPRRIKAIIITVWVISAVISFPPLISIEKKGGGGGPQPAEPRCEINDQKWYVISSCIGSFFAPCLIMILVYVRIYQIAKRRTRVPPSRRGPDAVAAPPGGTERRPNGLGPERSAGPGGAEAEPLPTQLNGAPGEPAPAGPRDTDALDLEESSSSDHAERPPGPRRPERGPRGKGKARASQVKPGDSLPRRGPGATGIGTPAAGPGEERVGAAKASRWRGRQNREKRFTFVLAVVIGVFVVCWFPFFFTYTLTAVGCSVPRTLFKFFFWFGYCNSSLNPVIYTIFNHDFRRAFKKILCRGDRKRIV
T3 sequence (P18825 whole entry): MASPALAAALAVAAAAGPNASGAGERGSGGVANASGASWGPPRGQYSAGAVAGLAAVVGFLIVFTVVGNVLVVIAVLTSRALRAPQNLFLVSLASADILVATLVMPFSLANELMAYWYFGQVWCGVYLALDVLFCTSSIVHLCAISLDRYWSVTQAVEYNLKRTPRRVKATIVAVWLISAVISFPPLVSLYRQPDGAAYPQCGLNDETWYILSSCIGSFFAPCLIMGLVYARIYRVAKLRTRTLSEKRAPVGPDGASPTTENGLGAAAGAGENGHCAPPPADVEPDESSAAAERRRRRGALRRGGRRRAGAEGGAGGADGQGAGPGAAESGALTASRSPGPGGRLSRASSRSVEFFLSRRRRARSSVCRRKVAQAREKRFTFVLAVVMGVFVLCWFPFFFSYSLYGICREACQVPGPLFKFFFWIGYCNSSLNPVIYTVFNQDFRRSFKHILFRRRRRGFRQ
T3 sequence (P18089 whole entry): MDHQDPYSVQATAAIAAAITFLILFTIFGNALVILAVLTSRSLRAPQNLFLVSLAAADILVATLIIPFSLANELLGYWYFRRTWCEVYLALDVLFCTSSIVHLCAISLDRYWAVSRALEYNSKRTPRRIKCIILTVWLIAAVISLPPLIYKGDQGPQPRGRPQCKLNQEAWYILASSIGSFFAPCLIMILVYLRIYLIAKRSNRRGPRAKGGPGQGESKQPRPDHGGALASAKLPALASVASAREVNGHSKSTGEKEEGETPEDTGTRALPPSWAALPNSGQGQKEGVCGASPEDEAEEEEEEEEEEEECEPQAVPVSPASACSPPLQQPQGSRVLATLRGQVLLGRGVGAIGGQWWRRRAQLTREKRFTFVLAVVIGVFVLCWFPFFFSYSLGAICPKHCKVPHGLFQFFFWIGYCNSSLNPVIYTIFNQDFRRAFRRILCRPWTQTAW
Experiment: Binding affinity towards alpha 2 adrenergic receptor
Format: protein assay, Canis lupus familiaris
Details: not given

Compound	Ki [nM]
CN(C)CC1CCc2c1ccc(O)c2O (stereo not given)	25
CN(C)CC1OCc2c1ccc(O)c2O (stereo not given)	10.7
NCC1OCc2c1ccc(O)c2O (stereo not given)	77
CCCN(CCC)CC1OCc2c1ccc(O)c2O (stereo not given)	670
CCCN(CCC)CC1CCc2c1ccc(O)c2O (stereo not given)	470
NCC1OCc2cc(O)c(O)cc21 (stereo not given)	13000
CNCC1CCc2c1ccc(O)c2O (stereo not given)	7
CNCC1OCc2c1ccc(O)c2O (stereo not given)	18
NCC1CCc2c1ccc(O)c2O (stereo not given)	15
NCC1CCc2cc(O)c(O)cc21 (stereo not given)	520

Reference: ChEMBL document CHEMBL1123666, “Conformationally defined adrenergic agents. 4. 1-(aminomethyl)phthalans: synthesis and pharmacological consequences of the phthalan ring oxygen atom” (J Med Chem, 1987)
